Measurements: patent publication US12414990B2, “Use of HLA-A*11:01-restricted hepatitis B virus (HBV) peptides for identifying HBV-specific CD8+ T cells” (AGENCY FOR SCIENCE, TECHNOLOGY AND RESEARCH, priority 2019, dated 2025)

System: HLA-A*11:01-restricted antigen-specific CD8+ T cells in patient's PBMC
Experiment: Highly multiplexed combinatorial pMHC tetramer staining with mass cytometry (epitope mapping, frequency of antigen-specific CD8+ T cells)
[1] = patients with detected epitope-specific CD8+ T cells / patients tested, Immune Active (IA) group, Freq > 0.002%
[2] = patients with detected epitope-specific CD8+ T cells / patients tested, Inactive Carrier (InA) group, Freq > 0.002%
[3] = patients with detected epitope-specific CD8+ T cells / patients tested, acute resolved (R) group, Freq > 0.002%
[4] = Inactive Carrier (InA) CHB patients, patients with detected tetramer+ CD8+ T cells (frequency > 0.002%) / patients in the group, per epitope cluster
[5] = Acute resolved (R) patients, patients with detected tetramer+ CD8+ T cells (frequency > 0.002%) / patients in the group, per epitope cluster
[6] = Immune Active (IA) patients, donors with tetramer+ CD8+ T cell frequency > 0.002% / donors tested
[7] = Immune Tolerant (IT) patients, donors with tetramer+ CD8+ T cell frequency > 0.002% / donors tested
[8] = acute resolved (R) patients, donors with tetramer+ CD8+ T cell frequency > 0.002% / donors tested
[9] = Inactive Carrier (InA) patients, donors with tetramer+ CD8+ T cell frequency > 0.002% / donors tested
[10] = patients with detected epitope-specific CD8+ T cells / patients tested, Immune Tolerant (IT) group, Freq > 0.002%
[11] = Immune Active (IA) CHB patients, patients with detected tetramer+ CD8+ T cells (frequency > 0.002%) / patients in the group, per epitope cluster
[12] = Immune Tolerant (IT) CHB patients, patients with detected tetramer+ CD8+ T cells (frequency > 0.002%) / patients in the group, per epitope cluster

## TTDLEAYFK
[1]
  Hits (Freq > 0.002%) IA: 1/12
[2]
  Hits (Freq > 0.002%) InA: 3/13
[3]
  Hits (Freq > 0.002%) R: 1/12

## QQGSMASGK
[4]
  Hits (Freq > 0.002%) InA: 1/13

## STVPCFNPK
[5]
  Hits (Freq > 0.002%) R: 1/12

## RVTGGVFLVDK
[6]
  Hits (Freq > 0.002%) IA: 1/12

## KIKMCFRK
[7]
  Hits (Freq > 0.002%) IT: 2/8
[8]
  Hits (Freq > 0.002%) R: 1/12

## GTLPQEHIVLK
[8]
  Hits (Freq > 0.002%) R: 1/12

## LVYRPTTGR
[6]
  Hits (Freq > 0.002%) IA: 1/12
[9]
  Hits (Freq > 0.002%) InA: 1/13

## STQVSWPK
[7]
  Hits (Freq > 0.002%) IT: 2/8
[8]
  Hits (Freq > 0.002%) R: 1/12

## KLVGINMSKK
[2]
  Hits (Freq > 0.002%) InA: 1/13

## SVVRRAFPH
[6]
  Hits (Freq > 0.002%) IA: 3/12
[7]
  Hits (Freq > 0.002%) IT: 1/8
[9]
  Hits (Freq > 0.002%) InA: 2/13

## KVFVLGGCRHK
[1]
  Hits (Freq > 0.002%) IA: 1/12
[10]
  Hits (Freq > 0.002%) IT: 1/8
[3]
  Hits (Freq > 0.002%) R: 2/12

## AMGDAGGYK
[2]
  Hits (Freq > 0.002%) InA: 1/13

## KTFVDLMRR
[1]
  Hits (Freq > 0.002%) IA: 1/12

## TVNHYFQTR
[11]
  Hits (Freq > 0.002%) IA: 4/12
[12]
  Hits (Freq > 0.002%) IT: 5/8
[4]
  Hits (Freq > 0.002%) InA: 5/13

## LLYKTFGRK
[6]
  Hits (Freq > 0.002%) IA: 5/12
[7]
  Hits (Freq > 0.002%) IT: 4/8
[9]
  Hits (Freq > 0.002%) InA: 5/13
[8]
  Hits (Freq > 0.002%) R: 1/12

## KTFDSEYVK
[3]
  Hits (Freq > 0.002%) R: 1/12

## GTSGSPIVNR
[1]
  Hits (Freq > 0.002%) IA: 4/12
[10]
  Hits (Freq > 0.002%) IT: 5/8
[2]
  Hits (Freq > 0.002%) InA: 4/13
[3]
  Hits (Freq > 0.002%) R: 4/12

## RTTWSIHAK
[1]
  Hits (Freq > 0.002%) IA: 5/12
[10]
  Hits (Freq > 0.002%) IT: 2/8
[2]
  Hits (Freq > 0.002%) InA: 3/13
[3]
  Hits (Freq > 0.002%) R: 3/12

## KSGAIKVLK
[2]
  Hits (Freq > 0.002%) InA: 1/13

## YVNVNMGLK
[1]
  Hits (Freq > 0.002%) IA: 1/12
[3]
  Hits (Freq > 0.002%) R: 1/12

## VSAISSILSK
[11]
  Hits (Freq > 0.002%) IA: 1/12

## TVSAISSILSK
[5]
  Hits (Freq > 0.002%) R: 1/12
[11]
  Hits (Freq > 0.002%) IA: 2/12
[12]
  Hits (Freq > 0.002%) IT: 1/8

## SVQRNLPFER
[1]
  Hits (Freq > 0.002%) IA: 4/12
[10]
  Hits (Freq > 0.002%) IT: 4/8
[2]
  Hits (Freq > 0.002%) InA: 6/13
[3]
  Hits (Freq > 0.002%) R: 3/12

## VTGGVFLVDK
[6]
  Hits (Freq > 0.002%) IA: 1/12

## QVLPKVLHK
[6]
  Hits (Freq > 0.002%) IA: 1/12

## TSMFPSCCCTK
[11]
  Hits (Freq > 0.002%) IA: 2/12
[12]
  Hits (Freq > 0.002%) IT: 1/8
[4]
  Hits (Freq > 0.002%) InA: 1/13

## GSCIQSQLRK
[12]
  Hits (Freq > 0.002%) IT: 1/8

## HTLWKAGILYK
[5]
  Hits (Freq > 0.002%) R: 2/12
[11]
  Hits (Freq > 0.002%) IA: 4/12
[12]
  Hits (Freq > 0.002%) IT: 1/8
[4]
  Hits (Freq > 0.002%) InA: 1/13

## RTQSPRRRR
[1]
  Hits (Freq > 0.002%) IA: 6/12
[10]
  Hits (Freq > 0.002%) IT: 1/8
[2]
  Hits (Freq > 0.002%) InA: 5/13
[3]
  Hits (Freq > 0.002%) R: 2/12

## TVMDIISRR
[10]
  Hits (Freq > 0.002%) IT: 2/8

## ASCMGLIYNR
[10]
  Hits (Freq > 0.002%) IT: 1/8
[2]
  Hits (Freq > 0.002%) InA: 1/13
[3]
  Hits (Freq > 0.002%) R: 1/12

## QSSGILSR
[5]
  Hits (Freq > 0.002%) R: 1/12

## SVQPTFSVQR
[1]
  Hits (Freq > 0.002%) IA: 3/12
[10]
  Hits (Freq > 0.002%) IT: 2/8
[2]
  Hits (Freq > 0.002%) InA: 4/13
[3]
  Hits (Freq > 0.002%) R: 1/12

## TVPCFNPK
[4]
  Hits (Freq > 0.002%) InA: 1/13

## LTFGRETVLE
[2]
  Hits (Freq > 0.002%) InA: 1/13
[3]
  Hits (Freq > 0.002%) R: 1/12

## VSLMLLYK
[8]
  Hits (Freq > 0.002%) R: 1/12

## RGNTRVSWPK
[6]
  Hits (Freq > 0.002%) IA: 2/12
[7]
  Hits (Freq > 0.002%) IT: 1/8
[9]
  Hits (Freq > 0.002%) InA: 1/13
[8]
  Hits (Freq > 0.002%) R: 1/12

## MVSRLLLNR
[1]
  Hits (Freq > 0.002%) IA: 1/12

## YVSLLLLYK
[6]
  Hits (Freq > 0.002%) IA: 2/12
[7]
  Hits (Freq > 0.002%) IT: 2/8
[9]
  Hits (Freq > 0.002%) InA: 3/13
[8]
  Hits (Freq > 0.002%) R: 1/12

## RIINNQHR
[6]
  Hits (Freq > 0.002%) IA: 1/12
[8]
  Hits (Freq > 0.002%) R: 1/12

## SSCLHQPAVRK
[4]
  Hits (Freq > 0.002%) InA: 1/12

## GILPRSSVGPR
[11]
  Hits (Freq > 0.002%) IA: 1/12
[4]
  Hits (Freq > 0.002%) InA: 3/13

## PTYKAFLSK
[6]
  Hits (Freq > 0.002%) IA: 2/12
[7]
  Hits (Freq > 0.002%) IT: 1/8
[9]
  Hits (Freq > 0.002%) InA: 2/13
[8]
  Hits (Freq > 0.002%) R: 1/12

## ATVLMGLGK
[1]
  Hits (Freq > 0.002%) IA: 1/12
[10]
  Hits (Freq > 0.002%) IT: 1/8
[2]
  Hits (Freq > 0.002%) InA: 1/13
